From US9149038B2, “4-amino-6-(heterocyclic)picolinates and 6-amino-2-(heterocyclic)pyrimidine-4-carboxylates and their use as herbicides” (Dow AgroSciences LLC, priority 2013, dated 2015)
Where two headings read alike, the source gives them in different places.

System: Wheat and Barley and weed species
Assay: Post-Emergent Test III: postemergent herbicidal activity in wheat and barley, visual rating after 21 d and probit GR20/GR50/GR80/GR90 (Tables 9-13)
Type: in vivo
Conditions: for Visual Growth Reduction (%) 21 Days After Application BRSNW: winter, canola; for pest or weed control at 17.5 g/ha / pest or weed control at 35 g/ha / pest or weed control at 70 g/ha: post-emergence, 504 h
Source text: Herbicidal evaluations were made visually on a scale of 0 to 100 where 0 represents no activity and 100 represents complete plant death.
Seeds of the desired test plant species were planted in Sun Gro MetroMix® 306 planting mixture, which typically has a pH of 6.0 to 6.8 and an organic matter content of about 30 percent, in plastic pots with a surface area of 103.2 square centimeters (cm^2). When required to ensure good germination and healthy plants, a fungicide treatment and/or other chemical or physical treatment was applied. The plants were grown for 7-36 days (d) in a greenhouse with an approximate 14 hour (h) photoperiod which was maintained at about 18° C. during the day and 17° C. during the night. Nutrients and water were added on a regular basis and supplemental lighting was provided with overhead metal halide 1000-Watt lamps as necessary. The plants were employed for testing when they reached the second or third true leaf stage.
A weighed amount, determined by the highest rate to be tested, of each test compound was placed in a 25 mL glass vial and was dissolved in 4 mL of a 97:3 v/v mixture of acetone and DMSO to obtain concentrated stock solutions. […] The concentrated stock solutions obtained were diluted with 20 mL of an aqueous mixture containing acetone, water, isopropyl alcohol, DMSO, Agri-Dex crop oil concentrate, and X-77 surfactant in a 48:39:10:1.5:1.5:0.02 v/v ratio to obtain spray solutions containing the highest application rates. Additional application rates were obtained by serial dilution of 12 mL of the high rate solution into a solution containing 2 mL of a 97:3 v/v mixture of acetone and DMSO and 10 mL of an aqueous mixture containing acetone, water, isopropyl alcohol, DMSO, Agri-Dex crop oil concentrate, and X-77 surfactant in a 48:39:10:1.5:1.5:0.02 v/v ratio to obtain ½×, ¼×, ⅛× and 1/16× rates of the high rate. Compound requirements are based upon a 12 mL application volume at a rate of 187 liters per hectare (L/ha). Formulated compounds were applied to the plant material with an overhead Mandel track sprayer equipped with 8002E nozzles calibrated to deliver 187 L/ha over an application area of 0.503 square meters at a spray height of 18 inches (43 cm) above the average plant canopy height. Control plants were sprayed in the same manner with the solvent blank.
The treated plants and control plants were placed in a greenhouse as described above and watered by subirrigation to prevent wash-off of the test compounds. After 21 d, the condition of the test plants as compared with that of the untreated plants was determined visually and scored on a scale of 0 to 100 percent where 0 corresponds to no injury and 100 corresponds to complete kill and are presented as indicated in Table 4.
By applying the well-accepted probit analysis as described by J. Berkson in Journal of the American Statistical Society, 48, 565 (1953) and by D. Finney in “Probit Analysis” Cambridge University Press (1952), herbicidal injury of a specific compound at various rates can be used to calculate GR20, GR50, GR80 and GR90 values, which are defined as growth reduction factors that correspond to the effective dose of herbicide required to provide plant growth reduction (GR) of 20 percent, 50 percent, 80 percent and 90 percent, respectively. Probit analysis was applied to data collected from multiple dose rates of individual compounds utilizing the procedures explained in the following examples. The data for some of the dose rates and analysis of all of the dose rates are captured in the following tables.

Nc1c(F)c(-c2ccc3c(c2)OC(F)(F)O3)nc(C(=O)O)c1Cl [Compound 7]
GR50 ALOMY (ALOMY black-grass (Alopecurus myosuroides), growth reduction of 50%, probit analysis): 16 g ai/ha
GR80 ALOMY (ALOMY black-grass (Alopecurus myosuroides), growth reduction of 80%, probit analysis): 25 g ai/ha
GR90 ALOMY (ALOMY black-grass (Alopecurus myosuroides), growth reduction of 90%, probit analysis): 34 g ai/ha
GR50 APESV (APESV bentgrass (Apera spica-venti), growth reduction of 50%, probit analysis): 30 g ai/ha
GR80 APESV (APESV bentgrass (Apera spica-venti), growth reduction of 80%, probit analysis): 114 g ai/ha
GR90 APESV (APESV bentgrass (Apera spica-venti), growth reduction of 90%, probit analysis): >140 g ai/ha
Visual Growth Reduction (%) 21 Days After Application BROTE (BROTE downy brome (Bromus tectorum), 17.5 g ai/ha): E (45-59)
Visual Growth Reduction (%) 21 Days After Application BROTE (BROTE downy brome (Bromus tectorum), 35 g ai/ha): D (60-74)
Visual Growth Reduction (%) 21 Days After Application BROTE (BROTE downy brome (Bromus tectorum), 70 g ai/ha): A (95-100)
GR50 BROTE (BROTE downy brome (Bromus tectorum), growth reduction of 50%, probit analysis): 15 g ai/ha
GR80 BROTE (BROTE downy brome (Bromus tectorum), growth reduction of 80%, probit analysis): 37 g ai/ha
GR90 BROTE (BROTE downy brome (Bromus tectorum), growth reduction of 90%, probit analysis): 59 g ai/ha
GR10 BRSNW (BRSNW oil seed rape, winter (Brassica napus), GR10, probit analysis): 0.5 g ai/ha
GR20 BRSNW (BRSNW oil seed rape, winter (Brassica napus), growth reduction of 20%, probit analysis): 1 g ai/ha
GR50 BRSNW (BRSNW oil seed rape, winter (Brassica napus), growth reduction of 50%, probit analysis): 5 g ai/ha
GR80 BRSNW (BRSNW oil seed rape, winter (Brassica napus), growth reduction of 80%, probit analysis): 24 g ai/ha
GR90 BRSNW (BRSNW oil seed rape, winter (Brassica napus), growth reduction of 90%, probit analysis): 53 g ai/ha
Visual Growth Reduction (%) 21 Days After Application BRSNW (BRSNW oil seed rape, winter (Brassica napus), 17.5 g ai/ha): D (60-74)
Visual Growth Reduction (%) 21 Days After Application BRSNW (BRSNW oil seed rape, winter (Brassica napus), 35 g ai/ha): C (75-84)
Visual Growth Reduction (%) 21 Days After Application BRSNW (BRSNW oil seed rape, winter (Brassica napus), 70 g ai/ha): A (95-100)
Visual Growth Reduction (%) 21 Days After Application GALAP (GALAP cleavers (Galium aparine), 17.5 g ai/ha): E (45-59)
Visual Growth Reduction (%) 21 Days After Application GALAP (GALAP cleavers (Galium aparine), 35 g ai/ha): D (60-74)
Visual Growth Reduction (%) 21 Days After Application GALAP (GALAP cleavers (Galium aparine), 70 g ai/ha): A (95-100)
GR50 GALAP (GALAP cleavers (Galium aparine), growth reduction of 50%, probit analysis): 12 g ai/ha
GR80 GALAP (GALAP cleavers (Galium aparine), growth reduction of 80%, probit analysis): 31 g ai/ha
GR90 GALAP (GALAP cleavers (Galium aparine), growth reduction of 90%, probit analysis): 52 g ai/ha
GR10 HORVS (HORVS barley, spring (crop), GR10, probit analysis): 1 g ai/ha
GR20 HORVS (HORVS barley, spring (crop), growth reduction of 20%, probit analysis): 2 g ai/ha
pest or weed control at 17.5 g/ha (Hordeum vulgare, HORVS barley, spring (crop), 17.5 g ai/ha, read-out: Visual Growth Reduction (%) 21 Days After Application HORVS): 75 to 84%
pest or weed control at 35 g/ha (Hordeum vulgare, HORVS barley, spring (crop), 35 g ai/ha, read-out: Visual Growth Reduction (%) 21 Days After Application HORVS): 85 to 94%
pest or weed control at 70 g/ha (Hordeum vulgare, HORVS barley, spring (crop), 70 g ai/ha, read-out: Visual Growth Reduction (%) 21 Days After Application HORVS): 85 to 94%
Visual Growth Reduction (%) 21 Days After Application LAMPU (LAMPU purple deadnettle (Lamium purpureum), 17.5 g ai/ha): C (75-84)
Visual Growth Reduction (%) 21 Days After Application LAMPU (LAMPU purple deadnettle (Lamium purpureum), 35 g ai/ha): B (85-94)
Visual Growth Reduction (%) 21 Days After Application LAMPU (LAMPU purple deadnettle (Lamium purpureum), 70 g ai/ha): A (95-100)
GR50 LAMPU (LAMPU purple deadnettle (Lamium purpureum), growth reduction of 50%, probit analysis): 3 g ai/ha
GR80 LAMPU (LAMPU purple deadnettle (Lamium purpureum), growth reduction of 80%, probit analysis): 12 g ai/ha
GR90 LAMPU (LAMPU purple deadnettle (Lamium purpureum), growth reduction of 90%, probit analysis): 27 g ai/ha
GR50 LOLSS (LOLSS ryegrass, growth reduction of 50%, probit analysis): >140 g ai/ha
GR80 LOLSS (LOLSS ryegrass, growth reduction of 80%, probit analysis): >140 g ai/ha
GR90 LOLSS (LOLSS ryegrass, growth reduction of 90%, probit analysis): >140 g ai/ha
Visual Growth Reduction (%) 21 Days After Application PHAMI (PHAMI lesser canary grass (Phalaris minor), 17.5 g ai/ha): C (75-84)
Visual Growth Reduction (%) 21 Days After Application PHAMI (PHAMI lesser canary grass (Phalaris minor), 35 g ai/ha): B (85-94)
Visual Growth Reduction (%) 21 Days After Application PHAMI (PHAMI lesser canary grass (Phalaris minor), 70 g ai/ha): A (95-100)
GR50 PHAMI (PHAMI lesser canary grass (Phalaris minor), growth reduction of 50%, probit analysis): 10 g ai/ha
GR80 PHAMI (PHAMI lesser canary grass (Phalaris minor), growth reduction of 80%, probit analysis): 24 g ai/ha
GR90 PHAMI (PHAMI lesser canary grass (Phalaris minor), growth reduction of 90%, probit analysis): 39 g ai/ha
GR50 SETVI (SETVI green foxtail (Setaria viridis), growth reduction of 50%, probit analysis): 6 g ai/ha
GR80 SETVI (SETVI green foxtail (Setaria viridis), growth reduction of 80%, probit analysis): 13 g ai/ha
GR90 SETVI (SETVI green foxtail (Setaria viridis), growth reduction of 90%, probit analysis): 21 g ai/ha
Visual Growth Reduction (%) 21 Days After Application SINAR (SINAR wild mustard (Sinapis arvensis), 17.5 g ai/ha): C (75-84)
Visual Growth Reduction (%) 21 Days After Application SINAR (SINAR wild mustard (Sinapis arvensis), 35 g ai/ha): B (85-94)
Visual Growth Reduction (%) 21 Days After Application SINAR (SINAR wild mustard (Sinapis arvensis), 70 g ai/ha): A (95-100)
GR50 SINAR (SINAR wild mustard (Sinapis arvensis), growth reduction of 50%, probit analysis): 3 g ai/ha
GR80 SINAR (SINAR wild mustard (Sinapis arvensis), growth reduction of 80%, probit analysis): 15 g ai/ha
GR90 SINAR (SINAR wild mustard (Sinapis arvensis), growth reduction of 90%, probit analysis): 36 g ai/ha
GR10 TRZAS (TRZAS wheat, spring (crop), GR10, probit analysis): 2 g ai/ha
GR20 TRZAS (TRZAS wheat, spring (crop), growth reduction of 20%, probit analysis): 3 g ai/ha
pest or weed control at 17.5 g/ha (Triticum aestivum, TRZAS wheat, spring (crop), 17.5 g ai/ha, read-out: Visual Growth Reduction (%) 21 Days After Application TRZAS): 75 to 84%
pest or weed control at 35 g/ha (Triticum aestivum, TRZAS wheat, spring (crop), 35 g ai/ha, read-out: Visual Growth Reduction (%) 21 Days After Application TRZAS): 85 to 94%
pest or weed control at 70 g/ha (Triticum aestivum, TRZAS wheat, spring (crop), 70 g ai/ha, read-out: Visual Growth Reduction (%) 21 Days After Application TRZAS): 85 to 94%
pest or weed control at 17.5 g/ha (ALOMY black-grass (Alopecurus myosuroides), 17.5 g ai/ha, read-out: Visual Growth Reduction (%) 21 Days After Application ALOMY): 45 to 59%
pest or weed control at 35 g/ha (ALOMY black-grass (Alopecurus myosuroides), 35 g ai/ha, read-out: Visual Growth Reduction (%) 21 Days After Application ALOMY): 85 to 94%
pest or weed control at 70 g/ha (ALOMY black-grass (Alopecurus myosuroides), 70 g ai/ha, read-out: Visual Growth Reduction (%) 21 Days After Application ALOMY): 95 to 100%
pest or weed control at 17.5 g/ha (APESV bentgrass (Apera spica-venti), 17.5 g ai/ha, read-out: Visual Growth Reduction (%) 21 Days After Application APESV): 45 to 59%
pest or weed control at 35 g/ha (APESV bentgrass (Apera spica-venti), 35 g ai/ha, read-out: Visual Growth Reduction (%) 21 Days After Application APESV): 60 to 74%
pest or weed control at 70 g/ha (APESV bentgrass (Apera spica-venti), 70 g ai/ha, read-out: Visual Growth Reduction (%) 21 Days After Application APESV): 75 to 84%
pest or weed control at 17.5 g/ha (LOLSS ryegrass, 17.5 g ai/ha, read-out: Visual Growth Reduction (%) 21 Days After Application LOLSS): 30 to 44%
pest or weed control at 35 g/ha (LOLSS ryegrass, 35 g ai/ha, read-out: Visual Growth Reduction (%) 21 Days After Application LOLSS): 45 to 59%
pest or weed control at 70 g/ha (LOLSS ryegrass, 70 g ai/ha, read-out: Visual Growth Reduction (%) 21 Days After Application LOLSS): 60 to 74%
pest or weed control at 17.5 g/ha (SETVI green foxtail (Setaria viridis), 17.5 g ai/ha, read-out: Visual Growth Reduction (%) 21 Days After Application SETVI): 60 to 74%
pest or weed control at 35 g/ha (SETVI green foxtail (Setaria viridis), 35 g ai/ha, read-out: Visual Growth Reduction (%) 21 Days After Application SETVI): 75 to 84%
pest or weed control at 70 g/ha (SETVI green foxtail (Setaria viridis), 70 g ai/ha, read-out: Visual Growth Reduction (%) 21 Days After Application SETVI): 85 to 94%
